Read-outs that look alike come from different tables or passages of the source. Blank lines part the entries; values can stand above or below the molecule they belong to.
What was measured:
[1] = test system: prostate cancer induced bone disease; test: in vivo model of prostate cancer induced bone disease
Experimental: (§1) MBC-11 was tested in recently completed phase I clinical trials in patients with CIBD.

[2] = MTD and tolerability of GEM-IB dosing regimens; type: in vivo
Excerpt: The MTD of the conjugate of Gemcitabine-to-Ibandronate is lower than that of MBC-1. Therefore, a conjugate of Gemcitabine-to-Ibandronate can be administered at or below 5/mg/kg/day via a 2-hour infusion for up to 5 consecutive days and Xofigo administered at or below its standard of care dosing regimen.

[3] = in vivo MicroCT of bone in OS mouse model; conditions: in vivo MicroCT 22 days after starting treatment; 6 mg/kg IB or 14 mg/kg GEM-IB
Experimental: To ensure the health of mice throughout a longer study, doses were reduced to 6 mg/kg IB and equimolar doses of GEM-IB (14 mg/kg) and GEM (6 mg/kg) with 15 mg/kg DTX. Mice were implanted with the 143B-luc cells via intratibial injection and treatment started 4 days after implantation.

[4] = mouse, in vivo
Experimental: (§2) 143B-luc cells were then implanted into nude mice via intratibial injection, creating an orthotopic model for OS. The presence and growth of tumors was confirmed with in vivo imaging (Xenogen). Mice (N=8/treatment group) were then treated with 60 mg/kg GEM twice weekly and 15 mg/kg DTX once weekly, alone or in combination (15 mg/kg DTX with 20, 40 or 60 mg/kg GEM) and monitored for weight loss and tumor growth.
(§3) Tolerability for IB and GEM-IB was tested in a mouse model system. […] To ensure the health of mice throughout a longer study, doses were reduced to 6 mg/kg IB and equimolar doses of GEM-IB (14 mg/kg) and GEM (6 mg/kg) with 15 mg/kg DTX. Mice were implanted with the 143B-luc cells via intratibial injection and treatment started 4 days after implantation.
(§4) Mice were then treated with GEM-IB, GEM-IB with DTX, or the individual agents of GEM, DTX, or IB.

143B-luc cells = test: orthotopic OS model: Kaplan-Meier survival until euthanasia due to large tumor size; conditions: euthanized when largest tumor-laden leg diameter reached 10 mm above normal leg diameter (FIG. 4)
Excerpt: Mice were euthanized when largest tumor-laden leg diameter reached 10 mm above normal leg diameter. […] Mice euthanized for weight loss are not indicated as deaths in this chart, and are indicated as tick marks on day euthanized.

[5] = tolerability in mice (weight loss, nephrotoxicity)
Experimental: as §2, §3, §4

143B-luc = test: cell culture treatment of human OS cell line 143B-luc (IC50, Bliss analysis)
Experimental: This was determined in culture with a human OS cell line—143B-luc (143B cells were transfected to express luciferase (luc) for use in a mouse model system).

[6] = clinically established MTD of MBC-11; type: in vivo, Human; conditions: 2-hour infusion for up to 5 consecutive days
Experimental: The current clinically established MTD of MBC-11 indicates the method should be used where MBC-11 is administered at or below 5/mg/kg/day via a 2-hour infusion for up to 5 consecutive days and Xofigo is administered at or below the standard of care dosing regimen.

bone lesions = test: phase I clinical trials of MBC-11 in patients with CIBD, bone lesions imaged by 18F-FDG-PET/CT; conditions: 15 patients, after MBC-11 therapy
Experimental: as §1

[7] = 60 mg/kg GEM twice weekly alone, 15 mg/kg DTX once weekly alone, or 15 mg/kg DTX with 20 or 40 mg/kg GEM, N=8/group

Compound: CCCCCN(C)CCC(O)(P(=O)(O)O)P(=O)(O)OP(=O)(O)OC[C@H]1O[C@@H](n2ccc(N)nc2=O)C(F)(F)[C@@H]1O (stereo partly shown) [GEM-IB]
activity compared to GEM-etidronate (GEM-ET), MBC-11 and cytarabine-IB ([1]; in vivo): more active
metastases after treatment ([1]; in vivo): significantly reduced
survival ([1]; study not designed for a survival endpoint): improved survival trend
tolerability ([2]; Monday, Wednesday and Friday dosing for three weeks at twice the 6 mg/kg daily dose): well tolerated
MTD ([2]; dosing for five sequential days): 6 mg/kg/day
MTD compared with MBC-1 ([2]; in vivo): lower
bone volume density [3]: high
trabecular number [3]: high
nephrotoxicity [4]: possible nephrotoxicity
tolerability [4]: well tolerated
day after treatment initiation from which mice were sacrificed (143B-luc cells): 28 days

IC50 (143B-luc; 143B-luc cells in culture, individual drug agent): 72 nM
reduction of IC50 of DTX (143B-luc; in the presence of 1 nM GEM versus DTX alone): 600 fold
IC50 (143B-luc; read-out: IC50 of DTX in the presence of GEM, 143B-luc cells in culture, in the presence of 1 nM GEM): 0.12 nM
Compound: CC(=O)O[C@@]12CO[C@@H]1C[C@H](O)[C@@]1(C)C(=O)[C@H](O)C3=C(C)[C@@H](OC(=O)[C@H](O)[C@@H](NC(=O)OC(C)(C)C)c4ccccc4)C[C@@](O)([C@@H](OC(=O)c4ccccc4)[C@H]21)C3(C)C [DTX, docetaxel]
weight loss [5, 7]: did not exhibit any weight loss

Compound: CCCCCN(C)CCC(O)(P(=O)(O)O)P(=O)(O)O [IB, ibandronate]
bone volume density [3]: high
trabecular number [3]: high
weight loss ([5]; IB 12 mg/kg twice weekly): only minimal weight loss
nephrotoxicity ([5]; at higher levels): possible nephrotoxicity
tolerability ([5]; at lower doses): well tolerated

IC50 (143B-luc; Homo sapiens): 9 nM
Compound: Nc1ccn([C@@H]2O[C@H](CO)[C@@H](O)C2(F)F)c(=O)n1 [GEM, Gemcitabine]
weight loss [5, 7]: did not exhibit any weight loss

Compound: CC(O)(P(=O)(O)O)P(=O)(O)OP(=O)(O)OC[C@H]1O[C@@H](n2ccc(N)nc2=O)[C@@H](O)[C@@H]1O (stereo partly shown) [MBC-11]
dose indicated by the clinically established MTD [6]: up to 5 /mg/kg/day
bone lesions with a significant reduction (>25%) in glucose avidity (bone lesions; 206 bone lesions imaged (18F-FDG-PET/CT)): 111 lesions
bone lesions significantly reduced in activity (bone lesions; 206 bone lesions imaged): 53.8%

— patent US11324767B2, “Drug combination treatments using bone-targeting therapeutics for bone and bone-related disease” (MBC Pharma, Inc., priority 2017, dated 2022)
